Test results reported in patent publication US11518764B2, “Substituted heteroaryls as inhibitors of the BCL6 BTB domain protein-protein interaction” (Ontario Institute for Cancer Research (OICR), priority 2018, dated 2022).
Read-outs that look alike come from different tables or passages of the source.

Experiments:
[1] = test system: BCL6 reporter construct (3xBCL6-TK-Luc) in SuDHL4 cells; experiment: Cell-based luciferase assay
Outline: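 SuDHL4 cells stably carrying a 3×BCL6-site TK-promoter firefly luciferase reporter, seeded at 15,000 cells/well, were dosed over a 10-point range (top 10 uM) and grown two days at 37 °C, 5% CO2. Luminescence then read after adding neolite reagent at room temperature.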

[2] = test system: Karpas422 cells; experiment: Tumor cell growth inhibition assay; type: cell-based
Outline: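 Growth inhibition was measured by ATPlite luminescence after six days of culture at 37° C. in 5% CO2. Karpas422 cells were seeded at 2,000 per well in Alpha-MEM plus 10% FBS. Compounds were given as a 10-point concentration series with a highest dose of 5 uM.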

[3] = molecular target: BCL6 BTB domain (Homo sapiens (Human), UniProt P41182); experiment: Surface plasmon resonance (SPR) assay; type: binding; details: BCL6 BTB domain captured on SA chip, single cycle kinetics
[4] = Homo sapiens, SU-DHL-4, 48 h, read-out: Luciferase-Assay EC50, uM), SuDHL4-3xBCL6-TK-Luc cells, two days, high dose 10 uM
[5] = Homo sapiens, KARPAS-422, 144 h, read-out: Tumor Growth Inhibition in Karpas-422 (IC50, uM), Karpas422 cells, six days, ATPlite
[6] = read-out: Luciferase-Assay EC50, SuDHL4-3xBCL6-TK-Luc cells, two days, high dose 10 uM
[7] = read-out: Tumor Growth Inhibition in Karpas-422 (IC50), Karpas422 cells, six days, ATPlite

Structure (SMILES) | EC50 [1, 4] | IC50 [2, 5] | Kd [3] | EC50 [1, 6] | IC50 [2, 7] | EC50 ([1]; Homo sapiens, SU-DHL-4, 48 h, SuDHL4-3xBCL6-TK-Luc cells, two days, high dose 10 uM, read-out: Luciferase-Assay EC50) | IC50 ([2]; Homo sapiens, KARPAS-422, 144 h, Karpas422 cells, six days, ATPlite, read-out: Tumor Growth Inhibition in Karpas-422 (IC50))
C[C@H]1COCCN1c1cc(NC(=O)Cn2cc(-c3cc(Cl)c(O)c(C(N)=O)c3)c3c(=O)n(C)cnc32)c(Cl)c(F)n1 [Compound I-235] | 0.139 µM | 0.138 µM | 14 nM | – | – | – | –
Cn1cnc2c(c(-c3cc(Cl)c(O)c(C(N)=O)c3)cn2CC(=O)Nc2cc(N3CCN4C(=O)CCC4C3)ncc2Cl)c1=O (stereo not drawn) [Compound I-236] | 0.739 µM | 0.385 µM | 16.6 nM | – | – | – | –
Cn1cnc2c(c(-c3cc(Cl)c(O)c(C(N)=O)c3)cn2CC(=O)Nc2cc(N3CCN4C(=O)OCC4C3)ncc2Cl)c1=O (stereo not drawn) [Compound I-237] | 1.04 µM | 1.25 µM | 17.6 nM | – | – | – | –
CN1CC2CN(c3cc(NC(=O)Cn4cc(-c5cc(Cl)c(O)c(C(N)=O)c5)c5c(=O)n(C)cnc54)c(Cl)cn3)CCN2C1=O (stereo not drawn) [Compound I-238] | 0.588 µM | 0.291 µM | 12.1 nM | – | – | – | –
C[C@H]1COCCN1c1cc(NC(=O)Cn2cc(-c3cc(Cl)c(O)c(C(N)=O)c3)c3c(=O)n(C)cnc32)c(F)cn1 [Compound I-241] | 0.483 µM | 0.281 µM | 19.5 nM | – | – | – | –
NC(=O)c1cc(-c2cn(CC(=O)Nc3cc(N4CC5CCC(C4)O5)ncc3Cl)c3nc[nH]c(=O)c23)cc(Cl)c1O [Compound I-242] | 0.483 µM | 0.312 µM | 5.01 nM | – | – | – | –
Cc1nc2c(c(-c3cc(F)c(O)c(C(N)=O)c3)cn2CC(=O)Nc2cc(N3CC(C)(C)NC(C)(C)C3)ncc2Cl)c(=O)n1C [Compound I-243] | 0.19 µM | 0.134 µM | 12.4 nM | – | – | – | –
Cn1cnc2c(c(-c3cc(Cl)c(O)c(C(N)=O)c3)cn2CC(=O)Nc2cc(N3CCOC4CC43)ncc2Cl)c1=O (stereo not drawn) [Compound I-244] | 0.279 µM | 0.169 µM | 8.46 nM | – | – | – | –
Cn1cnc2c(c(-c3cc(Cl)c(O)c(C(N)=O)c3)cn2CC(=O)Nc2cc(N3CCOCC34CCC4)ncc2Cl)c1=O [Compound I-245] | 0.245 µM | 0.182 µM | 20.4 nM | – | – | – | –
Cn1cnc2c(c(-c3cc(Cl)c(O)c(C(N)=O)c3)cn2CC(=O)NC2CCCCC2F)c1=O (stereo not drawn) [Compound I-246] | 10 µM | 10 µM | 1320 nM | – | – | – | –
C[C@H]1COCCN1c1cc(NC(=O)Cn2cc(-c3cc(Cl)c(O)c(C(N)=O)c3)c3c(=O)n(C)c(-c4ccccc4)nc32)c(Cl)cn1 [Compound I-248] | 11.9 µM | 0.29 µM | 326 nM | – | – | – | –
Cc1nc2c(c(-c3cc(C(N)=O)c(O)c(F)c3F)cn2CC(=O)Nc2cc(N3CCOC[C@@H]3C)ncc2Cl)c(=O)n1C [Compound I-249] | 0.689 µM | 0.736 µM | 77.3 nM | – | – | – | –
Cc1nc2c(c(-c3cc(F)c(O)c(C(N)=O)c3)cn2CC(=O)Nc2cc(N3CC(C)(C)N(C)C(C)(C)C3)ncc2Cl)c(=O)n1C [Compound I-250] | 0.0822 µM | 0.0902 µM | 16.3 nM | – | – | – | –
Cn1cnc2c(c(-c3cc(Cl)c(O)c(C(N)=O)c3)cn2CC(=O)Nc2cc(N3CCOC(C(F)(F)F)C3)ncc2Cl)c1=O (stereo not drawn) [Compound I-256] | – | – | 211 nM | 0.509 µM | 0.274 µM | – | –
Cn1cnc2c(c(-c3cc(Cl)c(O)c(C(N)=O)c3)cn2CC(=O)Nc2cc(N3CCOC(C(F)(F)F)C3)ncc2Cl)c1=O (stereo not drawn) [Compound I-258] | – | – | 100 nM | 0.549 µM | 0.491 µM | – | –
C[C@@H]1COC[C@@H](C)N1c1cc(NC(=O)Cn2cc(-c3cc(Cl)c(O)c(C(N)=O)c3)c3c(=O)n(C)cnc32)c(Cl)cn1 [Compound I-259] | 0.214 µM | 0.652 µM | 38.5 nM | – | – | – | –
C[C@H]1CN(C)CCN1c1cc(NC(=O)Cn2cc(-c3cc(Cl)c(O)c(C(N)=O)c3)c3c(=O)n(C)c(-c4ccccc4)nc32)c(Cl)cn1 [Compound I-260, (S)-3-chloro-5-(7-(2-((5-chloro-2-(2,4-dimethylpiperazin-1-yl)pyridin-4-yl)amino)-2-oxoethyl)-3-methyl-4-oxo-2-phenyl-4,7-dihydro-3H-pyrrolo[2,3-d]pyrimidin-5-yl)-2-hydroxybenzamide] | 10 µM | 0.238 µM | 58.8 nM | – | – | – | –
C[C@H]1CN(C)CCN1c1cc(NC(=O)Cn2cc(-c3cc(Cl)c(O)c(C(N)=O)c3)c3c(=O)[nH]c(-c4ccccc4)nc32)c(Cl)cn1 [Compound I-261, (S)-3-chloro-5-(7-(2-((5-chloro-2-(2,4-dimethylpiperazin-1-yl)pyridin-4-yl)amino)-2-oxoethyl)-4-oxo-2-phenyl-4,7-dihydro-3H-pyrrolo[2,3-d]pyrimidin-5-yl)-2-hydroxybenzamide] | 0.65 µM | 0.225 µM | 39.8 nM | – | – | – | –

Structure (SMILES) | EC50 [1, 4] | IC50 [2, 5] | Kd [3] | EC50 [1, 6] | IC50 [2, 7] | EC50 ([1]; Homo sapiens, SU-DHL-4, 48 h, SuDHL4-3xBCL6-TK-Luc cells, two days, high dose 10 uM, read-out: Luciferase-Assay EC50) | IC50 ([2]; Homo sapiens, KARPAS-422, 144 h, Karpas422 cells, six days, ATPlite, read-out: Tumor Growth Inhibition in Karpas-422 (IC50))
C[C@H]1COCCN1c1cc(NC(=O)Cn2cc(-c3cc(Cl)c(O)c(C(N)=O)c3)c3c(=O)n(C)c(Cl)nc32)c(Cl)cn1 [Compound I-262] | 0.468 µM | 0.389 µM | 22.8 nM | – | – | – | –
C[C@@H]1COC[C@H](C)N1c1cc(NC(=O)Cn2cc(-c3cc(Cl)c(O)c(C(N)=O)c3)c3c(=O)n(C)cnc32)c(Cl)cn1 [Compound I-264] | 0.347 µM | 0.376 µM | 30.3 nM | – | – | – | –
C[C@H]1CN(C)CCN1c1cc(NC(=O)Cn2cc(-c3cc(C(N)=O)c(O)c(Cl)c3F)c3c(=O)n(C)c(C(F)(F)F)nc32)c(Cl)cn1 [Compound I-267] | 2.27 µM | 3.79 µM | 582 nM | – | – | – | –
CCN(C)c1nc2c(c(-c3cc(Cl)c(O)c(C(N)=O)c3)cn2CC(=O)Nc2cc(N3CCOC[C@@H]3C)ncc2Cl)c(=O)n1C [Compound I-269, (S)-3-chloro-5-(7-(2-((5-chloro-2-(3-methylmorpholino)pyridin-4-yl)amino)-2-oxoethyl)-2-(ethyl(methyl)amino)-3-methyl-4-oxo-4,7-dihydro-3H-pyrrolo[2,3-d]pyrimidin-5-yl)-2-hydroxybenzamide] | 8.55 µM | 1.7 µM | 157 nM | – | – | – | –
C[C@H]1COCCN1c1cc(NC(=O)Cn2cc(-c3cc(Cl)c(O)c(C(N)=O)c3)c3c(=O)n(C)c(N4CCC4)nc32)c(Cl)cn1 [Compound I-270, (S)-5-(2-(azetidin-1-yl)-7-(2-((5-chloro-2-(3-methylmorpholino)pyridin-4-yl)amino)-2-oxoethyl)-3-methyl-4-oxo-4,7-dihydro-3H-pyrrolo[2,3-d]pyrimidin-5-yl)-3-chloro-2-hydroxybenzamide] | 2.31 µM | 3.82 µM | 63 nM | – | – | – | –
CC(C)N1CCN(c2cc(NC(=O)Cn3cc(-c4cc(Cl)c(O)c(C(N)=O)c4)c4c(=O)n(C)cnc43)c(Cl)cn2)[C@@H](C)C1 [Compound I-271] | 0.208 µM | 0.22 µM | 16 nM | – | – | – | –
Cc1nc2c(c(-c3cc(Cl)c(O)c(C(N)=O)c3)cn2CC(=O)Nc2cc(N3CCN(C(C)C)C[C@@H]3C)ncc2Cl)c(=O)n1C [Compound I-272] | 0.133 µM | 0.145 µM | 14.8 nM | – | – | – | –
Cn1cnc2c(c(-c3cc(F)c(O)c(C(N)=O)c3)cn2CC(=O)Nc2cc(N3CCCC3)ncc2Cl)c1=O [Compound I-273] | 0.416 µM | 0.251 µM | 5.31 nM | – | – | – | –
CC(C)N1CCN(c2cc(NC(=O)Cn3cc(-c4cc(Cl)c(O)c(C(N)=O)c4)c4c(=O)n(C)c(C(F)(F)F)nc43)c(Cl)cn2)[C@@H](C)C1 [Compound I-274] | 0.669 µM | 0.332 µM | 138 nM | – | – | – | –
Cn1cnc2c(c(-c3cc(F)c(O)c(C(N)=O)c3)cn2CC(=O)Nc2cc(N3CC4COCC4C3)ncc2Cl)c1=O (stereo not drawn) [Compound I-275] | 0.209 µM | 0.137 µM | 4.76 nM | – | – | – | –
CN1CCC2CN(c3cc(NC(=O)Cn4cc(-c5cc(F)c(O)c(C(N)=O)c5)c5c(=O)n(C)cnc54)c(Cl)cn3)CC21 (stereo not drawn) [Compound I-276] | 1.1 µM | 0.355 µM | 33.1 nM | – | – | – | –
Cn1cnc2c(c(-c3cc(Cl)c(O)c(C(N)=O)c3)cn2CC(=O)Nc2cc(N3CCOC4COCC43)ncc2Cl)c1=O (stereo not drawn) [Compound I-277] | 0.418 µM | 0.255 µM | 21 nM | – | – | – | –
Cn1cnc2c(c(-c3cc(Cl)c(O)c(C(N)=O)c3)cn2CC(=O)Nc2cc(N3CC4CCC(F)(F)C4C3)ncc2Cl)c1=O (stereo not drawn) [Compound I-278] | 0.622 µM | 1.13 µM | 42.5 nM | – | – | – | –
Cn1cnc2c(c(-c3cc(Cl)c(O)c(C(N)=O)c3)cn2CC(=O)Nc2cc(N3C4CCC3COC4)ncc2Cl)c1=O [Compound I-279] | 0.468 µM | 0.197 µM | 10.2 nM | – | – | – | –
Cn1cnc2c(c(-c3cc(Cl)c(O)c(C(N)=O)c3)cn2CC(=O)Nc2cc(N3CCOC4CCCC43)ncc2Cl)c1=O (stereo not drawn) [Compound I-280] | 1.4 µM | 0.821 µM | 101 nM | – | – | – | –
Cn1cnc2c(c(-c3cc(Cl)c(O)c(C(N)=O)c3)cn2CC(=O)Nc2cc(N3C4COCC5CC543)ncc2Cl)c1=O (stereo not drawn) [Compound I-281] | – | – | 60.8 nM | – | – | 2.88 µM | 2.18 µM
Cn1cnc2c(c(-c3cc(Cl)c(O)c(C(N)=O)c3)cn2CC(=O)Nc2cc(N3CC4CC(C3)O4)ncc2Cl)c1=O [Compound I-282] | 0.669 µM | 0.489 µM | 21.3 nM | – | – | – | –
CN1C2CCC1CN(c1cc(NC(=O)Cn3cc(-c4cc(F)c(O)c(C(N)=O)c4)c4c(=O)n(C)cnc43)c(Cl)cn1)C2 [Compound I-283] | 0.222 µM | 0.282 µM | 16.7 nM | – | – | – | –
